Records with an inconclusive call do not appear.
system: IOSE-T80 viability, CellTiterGlo ATP luminescence, 96 h; test: cytotoxicity in IOSE-T80 ovarian epithelial cells, dose response, selectivity assay for PAX8 inhibitor project, cell-based, cherry-pick (AID 687032)

First: O=C(Nc1ccc(Cl)c(Cl)c1)N[C@@H]1CC[C@H](CCn2cc(C3CCCCC3)nn2)O[C@H]1CO
Second: COc1ccc(S(=O)(=O)Nc2ccc3c(c2)C(=O)N([C@H](C)CO)C[C@H](C)[C@@H](CN(C)Cc2ccc(Cl)c(Cl)c2)OCCCC[C@@H](C)O3)cc1
The AC50 of the first is lower: under 0.26 µM for the first, 6.54 µM for the second.

Compared with COc1ccc(S(=O)(=O)Nc2ccc3c(c2)C(=O)N([C@H](C)CO)C[C@H](C)[C@H](CN(C)Cc2ccc(C(F)(F)F)cc2)OCCCC[C@H](C)O3)cc1, Cc1ccc(S(=O)(=O)Nc2ccc3c(c2)C(=O)N([C@H](C)CO)C[C@@H](C)[C@H](CN(C)Cc2ccc(C(F)(F)F)cc2)OCCCC[C@@H](C)O3)cc1 is lower in AC50: 3.45 µM for the first, under 0.26 µM for the second.

COc1ccc(-n2nc3c(N4CCC(C(=O)NCc5cccc(C)c5)CC4)nnc(C)c3c2C)cc1 and Cc1ccccc1CNC(=O)C1CCCN(c2nnc(C)c3c(C)n(-c4ccccc4)nc23)C1 (stereo unspecified) cannot be ordered by AC50: under 0.26 µM for the first, under 0.26 µM for the second.

Cc1ccc(-c2csc3ncnc(Sc4nnc(CN5CCCCCC5=O)o4)c23)cc1 and Cn1nnnc1Sc1ncnc2scc(-c3cccc(S(C)(=O)=O)c3)c12 are within 1.5-fold of each other in AC50: 8.67 µM for the first, 8.51 µM for the second.

Going from C[C@H]1CCCCO[C@H](CN(C)Cc2ccc(C(F)(F)F)cc2)[C@@H](C)CN([C@@H](C)CO)C(=O)c2cc(NC(=O)c3ccccc3)ccc2O1 to C[C@@H]1CN([C@H](C)CO)C(=O)c2cc(NC(=O)Nc3ccccc3)ccc2O[C@@H](C)CCCCO[C@@H]1CN(C)Cc1ccc(C(F)(F)F)cc1, the AC50 falls from 32.1 µM to under 0.26 µM.

Going from COc1ccc(Cn2cc3c(-c4ccc(F)cc4)nnc-3c3cc(OC)c(OC)cc32)cc1 to COc1ccc(F)cc1-c1cc(NC=O)c2ncc(-c3cc(OC)c(OC)c(OC)c3)n2c1, the AC50 falls from 8.49 µM to under 0.26 µM.

O=C(c1cc([N+](=O)[O-])ccc1N1CCOCC1)N1CCN(c2ccccc2)CC1 and COc1cccc(N2CCN(C(=O)c3ccc(CS(=O)c4ccccc4Cl)o3)CC2)c1 (stereo unspecified) cannot be ordered by AC50: under 0.26 µM for the first, under 0.26 µM for the second.

Cc1ccc(S(=O)(=O)Nc2ccc3c(c2)CC(=O)N([C@H](C)CO)C[C@H](C)[C@H](CN(C)S(=O)(=O)c2ccc(F)cc2)O3)cc1 and C[C@@H]1CCCCO[C@@H](CN(C)S(=O)(=O)c2ccc(Cl)cc2)[C@H](C)CN([C@H](C)CO)C(=O)c2cc(NS(=O)(=O)c3ccc(F)cc3)ccc2O1 cannot be ordered by AC50: under 0.26 µM for the first, under 0.26 µM for the second.

Compared with COc1cc(-c2cnc3c(NC=O)cc(-c4ccccc4)cn23)cc(OC)c1OC, COc1ccc(CCNc2nnc(Sc3nnnn3-c3ccccc3)s2)cc1OC is higher in AC50: under 0.26 µM for the first, 8.84 µM for the second.

First: Cc1ccsc1/C=N/Nc1cccc(C(=O)O)c1
Second: Cc1cc(Nc2ccc3c(c2)OCCO3)c2ccccc2n1
The AC50 of the first is higher: 17.3 µM for the first, under 0.26 µM for the second.

COCCn1c(C)cc(C2=NNC(=NC3CC3)SC2)c1C and CCCn1c(C)cc(C(=O)CN2C(=O)c3ccccc3S2(=O)=O)c1C cannot be ordered by AC50: under 0.26 µM for the first, under 0.26 µM for the second.

Cn1c(CCN2CCCC2)nc2cc(NS(=O)(=O)c3ccccc3)ccc21 and O=C1c2cccc3cc([N+](=O)[O-])cc(c23)C(=O)N1CCN1CCCC1 cannot be ordered by AC50: under 0.26 µM for the first, under 0.26 µM for the second.

C[C@H](CO)N1C[C@H](C)[C@H](CN(C)Cc2ccc(C(F)(F)F)cc2)OCCCC[C@H](C)Oc2ccc(NS(=O)(=O)c3ccccc3)cc2C1=O and C[C@@H]1CCCCO[C@@H](CN(C)Cc2ccc(C(F)(F)F)cc2)[C@@H](C)CN([C@@H](C)CO)C(=O)c2cc(NS(=O)(=O)c3ccccc3)ccc2O1 cannot be ordered by AC50: under 0.26 µM for the first, under 0.26 µM for the second.

First: S=c1sc2c(Cl)ncnc2n1-c1ccccc1
Second: FC(F)(F)c1nnc2c(Sc3ccccn3)nc3ccccc3n12
The AC50 of the first is lower: under 0.26 µM for the first, 8.85 µM for the second.

C[C@@H]1CCCCO[C@@H](CN(C)C(=O)Nc2cccc3ccccc23)[C@H](C)CN([C@H](C)CO)C(=O)c2cc(NS(=O)(=O)c3ccc(F)cc3)ccc2O1 and C[C@H]1CCCCO[C@H](CN(C)Cc2ccc(C(F)(F)F)cc2)[C@@H](C)CN([C@@H](C)CO)C(=O)c2cc(NS(=O)(=O)c3ccc(Cl)cc3)ccc2O1 cannot be ordered by AC50: under 0.26 µM for the first, under 0.26 µM for the second.

CCCNC(=O)Nc1ccc2c(c1)OC[C@H](C)N(Cc1ccc(-c3ccccn3)cc1)C[C@@H](C)[C@@H](OC)CN(C)C2=O and C[C@@H]1CN([C@H](C)CO)C(=O)Cc2cc(NC(=O)Nc3ccc(F)cc3)ccc2O[C@H]1CN(C)Cc1ccc(Cl)c(Cl)c1 cannot be ordered by AC50: under 0.26 µM for the first, under 0.26 µM for the second.

Compared with CCOc1ccc(NC(=O)Nc2cc(OCC(F)(F)F)cc(OCC(F)(F)F)c2)cc1, COc1ccc(NC(=O)c2c(Nc3ccccc3)sc(C(=O)c3ccc(F)cc3)c2N)cc1 is lower in AC50: 8.81 µM for the first, under 0.26 µM for the second.

Cc1ccc(NC(=O)CN(C)C(=O)Cn2ncc(Cl)c(Cl)c2=O)cc1 and CCN(CC)S(=O)(=O)c1cc(NC(=O)Cn2ncc(Cl)c(Cl)c2=O)ccc1C cannot be ordered by AC50: under 0.26 µM for the first, under 0.26 µM for the second.

O=C(NC1CCCCC1)C(c1cccnc1)N(C(=O)CCl)c1ccc(F)cc1 (stereo unspecified) and O=C(Nc1ccccc1)NN(C(=O)CCl)c1ccccc1 are within 1.5-fold of each other in AC50: 10.2 µM for the first, 8.6 µM for the second.

CCOc1ccc(-n2c(=S)sc3c(=O)[nH]c(SCC(=O)NCC4CCCO4)nc32)cc1 (stereo unspecified) and C[C@@H]1CN([C@H](C)CO)S(=O)(=O)c2ccc(C#CC3CCCC3)cc2O[C@@H]1CN(C)C(=O)Cc1ccncc1 cannot be ordered by AC50: under 0.26 µM for the first, under 0.26 µM for the second.

C=C(C)c1nc(Oc2ccccc2)nc(Oc2ccccc2)n1 and CC1CN(CC(O)COC(c2ccccc2)c2ccccc2)CC(C)O1 (stereo unspecified) cannot be ordered by AC50: under 0.26 µM for the first, under 0.26 µM for the second.

Going from CCC(C)(O)C(=O)OC1C(=O)OC2CC3C(C)=CC(=O)C(O)C3(C)C3C4(O)OCC23C1C(C)C4O (stereo unspecified) to C[C@]12CCC3C(CCC4=CC(O)CC[C@@]43/C=N/O)C1(O)CCC2C1=CC(=O)OC1 (stereo partly specified), the AC50 falls from 8.84 µM to under 0.26 µM.

Going from COc1cccc(S(=O)(=O)N2CC[C@H]3[C@@H](CO)N(C)c4ccc(C#Cc5ccc(F)cc5)cc4[C@H]32)c1 to CN1c2ccc(-c3cccc(F)c3)cc2[C@@H]2[C@@H](CCN2C(=O)Cc2ccccc2)[C@@H]1CO, the AC50 falls from 34.5 µM to under 0.26 µM.

O=C(C(=O)N(Cc1ccccc1)Cc1ccccc1)c1c(-c2ccccc2)[nH]c2ccccc12 and Cc1ccc(S(=O)(=O)Nc2cccc3c2O[C@@H](CN(C)Cc2ccc(Oc4ccccc4)cc2)[C@@H](C)CN([C@H](C)CO)C3=O)cc1 cannot be ordered by AC50: under 0.26 µM for the first, under 0.26 µM for the second.

Nc1nc(=S)c2[nH]cnc2[nH]1 and Cc1cnc(NC(=O)CSc2nnc(C)n2N)s1 cannot be ordered by AC50: under 0.26 µM for the first, under 0.26 µM for the second.

COc1cc(OC)cc(C(=O)NCC(=O)OCC(=O)c2cc(C)n(Cc3ccco3)c2C)c1 and COc1cc(C2C3=C(COC3=O)Oc3cc4c(cc32)OCO4)cc(OC)c1O (stereo unspecified) cannot be ordered by AC50: under 0.26 µM for the first, under 0.26 µM for the second.

CCCC(=O)NC(c1ccc(C(C)C)cc1)c1ccc2cccnc2c1O (stereo unspecified) and C[C@H](CO)N1C[C@H](C)[C@@H](CN(C)S(=O)(=O)c2ccc(Cl)cc2)OCCCC[C@H](C)Oc2ccc(NS(=O)(=O)c3ccc(Cl)cc3)cc2C1=O cannot be ordered by AC50: under 0.26 µM for the first, under 0.26 µM for the second.

O=S(=O)(c1ccccc1F)N1CC[C@@H]2[C@@H](CO)Nc3ccc(C4=CCCCC4)cc3[C@@H]21 and CC(C)CCCCCCCCCCCCC(=O)NCC(=O)NC1C(C)OC(Nc2ncnc3nc[nH]c23)C(O)C1O (stereo unspecified) cannot be ordered by AC50: under 0.26 µM for the first, under 0.26 µM for the second.

— PubChem BioAssay AID687032 (Broad Institute, 2013)
